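Following 48 hours of exposure in 96-well plates, responses at five concentrations were used to interpolate endpoints linearly. The concentration for full growth arrest is given as TGI.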
Assays:
Assay in all cases: NCI tumour cell line growth inhibition, 48 h
DU-145 prostate = system: DU-145 prostate
MDA-MB-231 breast = system: MDA-MB-231 breast
UO-31 renal = system: UO-31 renal
HS 578T breast = system: HS 578T breast
SK-MEL-5 melanoma = system: SK-MEL-5 melanoma
SF-295 CNS = system: SF-295 CNS
HCC-2998 colon = system: HCC-2998 colon
KM12 colon = system: KM12 colon
LOX IMVI melanoma = system: LOX IMVI melanoma
SK-OV-3 ovarian = system: SK-OV-3 ovarian
SW-620 colon = system: SW-620 colon
OVCAR-4 ovarian = system: OVCAR-4 ovarian
CCRF-CEM leukemia = system: CCRF-CEM leukemia
HCT-116 colon = system: HCT-116 colon
786-0 renal = system: 786-0 renal
T-47D breast = system: T-47D breast
COLO 205 colon = system: COLO 205 colon
M14 melanoma = system: M14 melanoma
MCF7 breast = system: MCF7 breast
SN12C renal = system: SN12C renal
HT29 colon = system: HT29 colon
OVCAR-3 ovarian = system: OVCAR-3 ovarian
OVCAR-5 ovarian = system: OVCAR-5 ovarian
CAKI-1 renal = system: CAKI-1 renal
HL-60(TB) leukemia = system: HL-60(TB) leukemia
MDA-N = system: MDA-N
NCI-H23 lung = system: NCI-H23 lung
HOP-62 NSCLC = system: HOP-62 NSCLC
U251 CNS = system: U251 CNS
A498 renal = system: A498 renal
MALME-3M melanoma = system: MALME-3M melanoma
HCT-15 colon = system: HCT-15 colon
SK-MEL-2 melanoma = system: SK-MEL-2 melanoma
EKVX NSCLC = system: EKVX NSCLC
OVCAR-8 ovarian = system: OVCAR-8 ovarian
BT-549 breast = system: BT-549 breast
UACC-62 melanoma = system: UACC-62 melanoma
IGROV1 ovarian = system: IGROV1 ovarian
MDA-MB-435 = system: MDA-MB-435
TK-10 renal = system: TK-10 renal
RXF 393 renal = system: RXF 393 renal
MOLT-4 leukemia = system: MOLT-4 leukemia
NCI/ADR-RES ovarian = system: NCI/ADR-RES ovarian
HOP-92 NSCLC = system: HOP-92 NSCLC
SF-268 CNS = system: SF-268 CNS
NCI-H460 lung = system: NCI-H460 lung
UACC-257 melanoma = system: UACC-257 melanoma
SNB-19 CNS = system: SNB-19 CNS
NCI-H522 lung = system: NCI-H522 lung
K-562 leukemia = system: K-562 leukemia
SNB-75 CNS = system: SNB-75 CNS
RPMI-8226 leukemia = system: RPMI-8226 leukemia
ACHN renal = system: ACHN renal
PC-3 prostate = system: PC-3 prostate
A549 NSCLC = system: A549 NSCLC
SK-MEL-28 melanoma = system: SK-MEL-28 melanoma
NCI-H226 lung = system: NCI-H226 lung
SF-539 CNS = system: SF-539 CNS

O=C1/C(=C/c2ccc(Cl)cc2)N=C(c2ccccc2)N1c1nc2ccc(Sc3ccccc3)cc2[nH]1
TGI (DU-145 prostate): > 100 µM | TGI (MDA-MB-231 breast): 90.1 µM | TGI (UO-31 renal): > 100 µM | TGI (HS 578T breast): 91.4 µM | TGI (SK-MEL-5 melanoma): 29.2 µM | TGI (SF-295 CNS): 87.1 µM | TGI (HCC-2998 colon): 31.4 µM | TGI (KM12 colon): 81.2 µM | TGI (LOX IMVI melanoma): 61.9 µM | TGI (SK-OV-3 ovarian): > 100 µM | TGI (SW-620 colon): 80.8 µM | TGI (OVCAR-4 ovarian): > 100 µM | TGI (CCRF-CEM leukemia): 87 µM | TGI (HCT-116 colon): 62.3 µM | TGI (786-0 renal): 64.6 µM | TGI (T-47D breast): > 100 µM | TGI (COLO 205 colon): 33.8 µM | TGI (M14 melanoma): 35.1 µM | TGI (MCF7 breast): 63.5 µM | TGI (SN12C renal): > 100 µM | TGI (HT29 colon): 40 µM | TGI (OVCAR-3 ovarian): > 100 µM | TGI (OVCAR-5 ovarian): > 100 µM | TGI (CAKI-1 renal): > 100 µM | TGI (HL-60(TB) leukemia): 35.6 µM | TGI (MDA-N): 27.7 µM | TGI (NCI-H23 lung): > 100 µM | TGI (HOP-62 NSCLC): > 100 µM | TGI (U251 CNS): 84.7 µM | TGI (A498 renal): 72.3 µM | TGI (MALME-3M melanoma): 58.9 µM | TGI (HCT-15 colon): > 100 µM | TGI (SK-MEL-2 melanoma): 31.6 µM | TGI (EKVX NSCLC): > 100 µM | TGI (OVCAR-8 ovarian): > 100 µM | TGI (BT-549 breast): 57.7 µM | TGI (UACC-62 melanoma): 29.8 µM | TGI (IGROV1 ovarian): > 100 µM | TGI (MDA-MB-435): 27.1 µM | TGI (TK-10 renal): 59.6 µM | TGI (RXF 393 renal): > 100 µM | TGI (MOLT-4 leukemia): 87.6 µM | TGI (NCI/ADR-RES ovarian): 75.5 µM | TGI (HOP-92 NSCLC): > 100 µM | TGI (SF-268 CNS): > 100 µM | TGI (NCI-H460 lung): 61.8 µM | TGI (UACC-257 melanoma): 55.8 µM | TGI (SNB-19 CNS): > 100 µM | TGI (NCI-H522 lung): 54.3 µM | TGI (K-562 leukemia): 61.8 µM | TGI (SNB-75 CNS): 60.2 µM | TGI (RPMI-8226 leukemia): 55.7 µM | TGI (ACHN renal): > 100 µM | TGI (PC-3 prostate): > 100 µM | TGI (A549 NSCLC): > 100 µM | TGI (SK-MEL-28 melanoma): 72.7 µM

COC(=O)Nc1nc2ccc(NS(=O)(=O)c3ccc(Cl)cc3)cc2[nH]1
TGI (DU-145 prostate): 62.6 µM | TGI (MDA-MB-231 breast): 28.5 µM | TGI (UO-31 renal): 40.7 µM | TGI (HS 578T breast): 8.86 µM | TGI (SK-MEL-5 melanoma): 16.7 µM | TGI (SF-295 CNS): 19.2 µM | TGI (KM12 colon): 14.9 µM | TGI (LOX IMVI melanoma): 16.9 µM | TGI (SK-OV-3 ovarian): 44.2 µM | TGI (SW-620 colon): > 100 µM | TGI (OVCAR-4 ovarian): 51.5 µM | TGI (CCRF-CEM leukemia): 56.9 µM | TGI (HCT-116 colon): 11.1 µM | TGI (786-0 renal): 56.3 µM | TGI (T-47D breast): 60.7 µM | TGI (COLO 205 colon): 24.5 µM | TGI (M14 melanoma): 23.4 µM | TGI (MCF7 breast): 35.7 µM | TGI (SN12C renal): 72.3 µM | TGI (HT29 colon): 15.5 µM | TGI (OVCAR-3 ovarian): 10.7 µM | TGI (OVCAR-5 ovarian): 44.6 µM | TGI (CAKI-1 renal): 21.1 µM | TGI (HL-60(TB) leukemia): 12.6 µM | TGI (MDA-N): 5.93 µM | TGI (NCI-H23 lung): 36.9 µM | TGI (HOP-62 NSCLC): 31.5 µM | TGI (U251 CNS): 47.5 µM | TGI (A498 renal): 9.91 µM | TGI (MALME-3M melanoma): 43.7 µM | TGI (HCT-15 colon): > 100 µM | TGI (SK-MEL-2 melanoma): 26.8 µM | TGI (EKVX NSCLC): 33.2 µM | TGI (OVCAR-8 ovarian): 54.7 µM | TGI (BT-549 breast): 55.2 µM | TGI (UACC-62 melanoma): 33.5 µM | TGI (NCI-H226 lung): 47.2 µM | TGI (IGROV1 ovarian): 7.81 µM | TGI (MDA-MB-435): 5.5 µM | TGI (TK-10 renal): 17.7 µM | TGI (RXF 393 renal): 26.4 µM | TGI (MOLT-4 leukemia): > 100 µM | TGI (NCI/ADR-RES ovarian): 47.7 µM | TGI (HOP-92 NSCLC): 8.55 µM | TGI (SF-268 CNS): 67 µM | TGI (NCI-H460 lung): 43.1 µM | TGI (SNB-19 CNS): 29.6 µM | TGI (NCI-H522 lung): 8.19 µM | TGI (K-562 leukemia): > 100 µM | TGI (SNB-75 CNS): 7.59 µM | TGI (RPMI-8226 leukemia): 26.8 µM | TGI (SF-539 CNS): 30.4 µM | TGI (ACHN renal): > 100 µM | TGI (PC-3 prostate): 54.3 µM | TGI (A549 NSCLC): 72.1 µM | TGI (SK-MEL-28 melanoma): 27.3 µM

Source: PubChem BioAssay (NCI)
